Experiments:
[1] = Solubility in solvents; assay type: physicochemical; settings: qualitative
Source text: As many as seven antibiotic factors are recovered from the fermentation and are obtained as a mixture, the A41030 complex. It will be recognized that the ratio of the factors in the A41030 complex will vary, depending upon the fermentation conditions used. The individual factors A, B, C, D, E, F, and G are separated and isolated as individual compounds, as hereinafter described.

[2] = test system: Fusobacterium necrophorum; experiment: MIC anaerobic bacteria, agar-dilution; assay type: cell-based; settings: Fusobacterium necrophorum 6054A
[3] = test system: Streptococcus sp. Group D; experiment: MIC aerobic bacteria, standard agar-dilution assay; assay type: cell-based
[4] = test system: S. pneumoniae; experiment: Experimental bacterial infection in mice, subcutaneous ED50; assay type: in vivo; settings: two doses subcutaneously
Experimental: All of the A41030 factors tested have shown in vivo antimicrobial activity against experimental bacterial infections. When two doses of test compound were administered subcutaneously to mice in illustrative infections, the activity observed is measured as an ED50 value [effective dose in mg./kg. to protect fifty percent of the test animals: See Warren Wick, et al., J. Bacteriol. 81, 233-235 (1961)].

For A41030 factor B, the “solubility (solvents)” value [1] was “soluble in the same solvents as factor A”, the MIC [2] was 8 mg/L and the MIC ([3]; Streptococcus sp. Group D 9960, 24 hours) was 1 mg/L. For the same substance, the MIC ([3]; Streptococcus sp. Group D X66, 24 hours) was 1 mg/L and the ED50 [4] was 1.4 mg/kg.

From patent US4695545A, “Culture and process for producing A41030 antibiotics” (Eli Lilly and Company, priority 1984, dated 1987)
